Experiments:
Assay type in all cases: cell-based, mouse
RAW 264.7 cells [1] = assay: Cooperative TNF-α production by LPS and GM3 in RAW 264.7 cells (ELISA); conditions: LPS 0.5 ng/mL; for TNF-α production by LPS and GM3 on addition of 1 μM or less of ganglioside: 1 μM (GM3 ratio; 10:1) or less, GM3 5.0 μM (FIG. 5); for synergistic increases in productions of TNF-α by GM3 and LPS: glycosphingolipid 0.25 to 1.0 μM
Protocol: RAW 264.7 cells cultured overnight in DMEM containing 0.5% fetal bovine serum were co-stimulated by each glycosphingolipid (0.25 to 1.0 μM), LPS (0.5 ng/mL), and GM3 (5.0 μM). 18 hours later, the TNF-α in the culture supernatant was quantitated by the ELISA method.

RAW 264.7 cells [2] = assay: LPS-dependent TNF-α production in RAW 264.7 cells (ELISA); conditions: for TNF-α production by LPS on addition of 1 μM or less of ganglioside: LPS 2.0 ng/mL (FIG. 4); for TNF-α production by LPS: LPS 0.5 ng/mL + each glycosphingolipid 1.0 μM, 0.5% fetal bovine serum, 18 hours (FIG. 3); for inflammation promoted by LPS (LPS-dependent TNF-α production): LPS 2.0 ng/mL + glycosphingolipid 0.25 to 2.0 μM, 18 hours (FIG. 4)
Protocol: A serum ganglioside mimic resembling the composition of these gangliosides was used to treat a macrophage-like cultured cell line in which the serum in the medium was removed and reduced: RAW 264.7 cells (0.5% fetal bovine-derived serum). Then, an actual influence on TNF-α production by TLR4 ligand (LPS) stimulation was examined.
RAW 264.7 cells cultured overnight in DMEM containing 0.5% fetal bovine serum were co-stimulated by 0.5 ng/mL of lipopolysaccharide (LPS) and ganglioside (serum ganglioside mimic) at a concentration resembling the composition of serum ganglioside. 18 hours later, the TNF-α in the culture supernatant was quantitated by an ELISA method.
RAW 264.7 cells cultured overnight in DMEM containing 0.5% fetal bovine serum were co-stimulated by LPS (0.5 ng/mL) and each glycosphingolipid (1.0 μM). 18 hours later, the TNF-α in the culture supernatant was quantitated by the ELISA method.
RAW 264.7 cells cultured overnight in DMEM containing 0.5% fetal bovine serum were co-stimulated by LPS (2.0 ng/mL) and each glycosphingolipid (0.25 to 2.0 μM). 18 hours later, the TNF-α in the culture supernatant was quantitated by the ELISA method.

[3] = tested on: bone marrow-derived macrophages (BMDMs); assay: LPS-dependent TNF-α production in bone marrow-derived macrophages (ELISA); conditions: LPS 0.5 ng/mL + glycosphingolipid 10 μM, 18 hours (FIG. 6)
Protocol: Bone marrow-derived cells harvested from the femur and tibia of C57/BL6 mice were induced to differentiate for one week using 20 ng/mL of recombinant macrophage colony-stimulating factor (M-CSF). The obtained bone marrow-derived macrophages (BMDMs) were cultured overnight in DMEM containing 0.5% fetal bovine serum and co-stimulated with LPS (0.5 ng/mL) and each glycosphingolipid (10 μM). 18 hours later, the TNF-α in the culture supernatant was quantitated by the ELISA method.

[4] = tested on: bone marrow-derived macrophages (BMDMs); assay: Cooperative TNF-α production by LPS and GM3 in bone marrow-derived macrophages (ELISA); conditions: LPS 0.5 ng/mL, GM3 10 μM, glycosphingolipid 10 μM, 18 hours (FIG. 7)
Protocol: Bone marrow-derived cells harvested from the femur and tibia of C57/BL6 mice were induced to differentiate for one week using 20 ng/mL of recombinant macrophage colony-stimulating factor (M-CSF). The obtained bone marrow-derived macrophages (BMDMs) were cultured overnight in DMEM containing 0.5% fetal bovine serum and co-stimulated with LPS (0.5 ng/mL), GM3 (10 μM), and each glycosphingolipid (10 μM). After 18 hours, the TNF-α in the culture supernatant was quantified by the ELISA method.

| Substance | TNF-α production by LPS and GM3 on addition of 1 μM or less of ganglioside (RAW 264.7 cells [1]) | synergistic increases in productions of TNF-α by GM3 and LPS (RAW 264.7 cells [1]; GM3 5.0 μM, 18 hours (FIG. 5)) | TNF-α production by LPS on addition of 1 μM or less of ganglioside (RAW 264.7 cells [2]) | TNF-α production by LPS (RAW 264.7 cells [2]) | inflammation promoted by LPS (LPS-dependent TNF-α production) (RAW 264.7 cells [2]) | LPS-dependent TNF-α production in bone marrow-derived macrophages [3] | cooperative TNF-α production by LPS and GM3 in bone marrow-derived macrophages [4] | IC50 (RAW 264.7 cells [1]; TNF-α production, GM3 5.0 μM, 18 hours (FIG. 5), read-out: 50% inhibitory concentration for cooperative activation of LPS and GM3) |
| --- | --- | --- | --- | --- | --- | --- | --- | --- |
| GD1b | almost completely inhibited | inhibited in a concentration-dependent manner | almost completely inhibited | significantly strongly inhibited | inhibited in a concentration-dependent manner | inhibited | strongly inhibited |  |
| GT1b | almost completely inhibited | inhibited in a concentration-dependent manner | almost completely inhibited | significantly strongly inhibited | inhibited in a concentration-dependent manner | inhibited | strongly inhibited | 250 nM |
| GD1a | almost completely inhibited | inhibited in a concentration-dependent manner | almost completely inhibited | strongly inhibited | inhibited in a concentration-dependent manner | inhibited | strongly inhibited |  |
| α-Neu5Ac-(2-3)β-Gal-(1-4)-β-Glc-(1-1)-ceramide [GM3, reference compound] |  |  |  | significantly increased |  |  |  |  |

Reference: patent publication US10849926B2, “GM3-promoted inflammation inhibitor and inflammatory cytokine production inhibitor” (THE NOGUCHI INSTITUTE, priority 2015, dated 2020)
